System: SARS-CoV-2 virus

Compound: CCC(CC)COC(=O)[C@H](C)N[P@](=O)(OC[C@H]1O[C@@](C#N)(c2ccc3c(N)ncnn23)[C@H](O)[C@@H]1O)Oc1ccccc1 [Remdesivir]
- SI (Selection Index = TC50/IC50): 162.21

Compound: O=C(OC[C@H]1O[C@@H](OC(=O)c2cc(O)c(O)c(OC(=O)c3cc(O)c(O)c(O)c3)c2)[C@H](OC(=O)c2cc(O)c(O)c(OC(=O)c3cc(O)c(O)c(O)c3)c2)[C@@H](OC(=O)c2cc(O)c(O)c(OC(=O)c3cc(O)c(O)c(O)c3)c2)[C@@H]1OC(=O)c1cc(O)c(O)c(OC(=O)c2cc(O)c(O)c(O)c2)c1)c1cc(O)c(O)c(OC(=O)c2cc(O)c(O)c(O)c2)c1 [Tannic acid, tannic acid]
- SI (Selection Index = TC50/IC50): 7343.75

— patent US12064444B2, “Application of tannic acid in preparation of medicament against respiratory viruses” (priority 2020, dated 2024)
